# Reference: patent publication US7662832B2, “Pyrrolo[2,3-c]pyridine derivatives and processes for the preparation thereof” (priority 2004, dated 2010)
# Where a name gives a salt, the structure may show the parent alone.
# Molecular target: Proton Pump (H^+/K^+-ATPase) (Sus scrofa, UniProt P19156)
# Assay: Inhibitory effects on proton pump (H^+/K^+-ATPase) activity
# Assay type: biochemical
# Details: hog gastric vesicles; K^+ stimulated H^+/K^+-ATPase activity; 30 minutes at 37° C.
# Proton Pump (H^+/K^+-ATPase), sequence (P19156 2-1034 limits assumed): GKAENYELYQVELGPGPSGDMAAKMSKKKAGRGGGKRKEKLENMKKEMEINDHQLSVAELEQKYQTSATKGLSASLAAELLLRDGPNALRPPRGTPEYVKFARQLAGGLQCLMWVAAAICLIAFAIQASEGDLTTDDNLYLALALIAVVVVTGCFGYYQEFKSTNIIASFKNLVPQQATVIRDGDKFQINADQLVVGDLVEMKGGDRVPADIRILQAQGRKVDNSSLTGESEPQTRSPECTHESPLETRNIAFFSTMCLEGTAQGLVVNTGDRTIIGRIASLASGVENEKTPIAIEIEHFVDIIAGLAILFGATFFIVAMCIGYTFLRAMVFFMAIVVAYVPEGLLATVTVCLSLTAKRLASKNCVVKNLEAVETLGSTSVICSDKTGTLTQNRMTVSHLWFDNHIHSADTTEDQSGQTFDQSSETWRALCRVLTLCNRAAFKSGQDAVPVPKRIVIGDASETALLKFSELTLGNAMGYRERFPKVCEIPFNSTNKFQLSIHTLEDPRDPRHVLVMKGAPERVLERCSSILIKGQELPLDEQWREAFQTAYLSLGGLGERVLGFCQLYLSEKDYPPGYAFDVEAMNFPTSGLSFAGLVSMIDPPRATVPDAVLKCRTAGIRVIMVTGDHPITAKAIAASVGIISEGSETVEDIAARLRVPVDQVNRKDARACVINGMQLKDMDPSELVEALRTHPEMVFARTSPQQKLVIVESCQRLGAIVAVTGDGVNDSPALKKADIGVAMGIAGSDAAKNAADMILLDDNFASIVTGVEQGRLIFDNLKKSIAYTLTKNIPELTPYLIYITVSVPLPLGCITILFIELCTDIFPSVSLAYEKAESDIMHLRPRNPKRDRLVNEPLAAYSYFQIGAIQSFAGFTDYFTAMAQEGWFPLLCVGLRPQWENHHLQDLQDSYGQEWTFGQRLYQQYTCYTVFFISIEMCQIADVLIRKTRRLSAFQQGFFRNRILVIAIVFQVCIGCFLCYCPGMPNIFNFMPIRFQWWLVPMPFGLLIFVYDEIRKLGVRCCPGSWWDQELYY
# Proton Pump (H^+/K^+-ATPase), sequence (P18434 whole entry partner): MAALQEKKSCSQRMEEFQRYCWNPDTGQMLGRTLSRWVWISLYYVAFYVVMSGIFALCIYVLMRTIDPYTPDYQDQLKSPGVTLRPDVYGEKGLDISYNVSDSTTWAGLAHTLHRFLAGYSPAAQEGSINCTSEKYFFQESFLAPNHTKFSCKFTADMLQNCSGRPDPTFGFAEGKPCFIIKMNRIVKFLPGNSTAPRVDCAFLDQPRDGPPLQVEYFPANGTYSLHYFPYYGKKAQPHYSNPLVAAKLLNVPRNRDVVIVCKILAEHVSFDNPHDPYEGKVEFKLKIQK
row,SMILES,IC50 [nM]
1,"CCCn1c(C)c(C)c2cc(C(=O)N3CCCCC3)nc(N3CCc4ccccc4C3)c21 [Example 801, [7-(3,4-dihydro-1H-isoquinolin-2-yl)-2,3-dimethyl-1-propyl-1H-pyrrolo[2,3-c]pyridin-5-yl]-(piperidin-1-yl)-methanone hydrochloride]",158
2,"C#CCn1c(C)c(C)c2cc(C(=O)N3CCCCC3)nc(N3CCc4ccccc4C3)c21 [Example 802, [7-(3,4-dihydro-1H-isoquinolin-2-yl)-2,3-dimethyl-1-(prop-2-ynyl)-1H-pyrrolo[2,3-c]pyridin-5-yl]-(piperidin-1-yl)-methanone hydrochloride]",80
3,"CCn1c(C)c(C)c2cc(C(=O)N3CCCC3)nc(N3CCc4ccccc4C3)c21 [Example 803, [7-(3,4-dihydro-1H-isoquinolin-2-yl)-1-ethyl-2,3-dimethyl-1H-pyrrolo[2,3-c]pyridin-5-yl]-(pyrrolidin-1-yl)-methanone hydrochloride]",35
4,"CCn1c(C)c(C)c2cc(C(=O)N3CCC(CCO)CC3)nc(N3CCc4ccccc4C3)c21 [Example 804, [7-(3,4-dihydro-1H-isoquinolin-2-yl)-1-ethyl-2,3-dimethyl-1H-pyrrolo[2,3-c]pyridin-5-yl]-[4-(2-hydroxyethyl)-piperidin-1-yl]-methanone hydrochloride]",36
5,"CCn1c(C)c(C)c2cc(C(=O)N3CCC(CO)CC3)nc(N3CCc4ccccc4C3)c21 [Example 805, [7-(3,4-dihydro-1H-isoquinolin-2-yl)-1-ethyl-2,3-dimethyl-1H-pyrrolo[2,3-c]pyridin-5-yl]-(4-hydroxymethylpiperidin-1-yl)-methanone hydrochloride]",31
6,"CCn1c(C)c(C)c2cc(C(=O)N3CCC(O)CC3)nc(N3CCc4ccccc4C3)c21 [Example 806, [7-(3,4-dihydro-1H-isoquinolin-2-yl)-1-ethyl-2,3-dimethyl-1H-pyrrolo[2,3-c]pyridin-5-yl]-(4-hydroxypiperidin-1-yl)-methanone hydrochloride]",13
7,"CCn1c(C)c(C)c2cc(C(=O)N3CCCC(O)C3)nc(N3CCc4ccccc4C3)c21 (centres unmarked) [Example 807, [7-(3,4-dihydro-1H-isoquinolin-2-yl)-1-ethyl-2,3-dimethyl-1H-pyrrolo[2,3-c]pyridin-5-yl]-(3-hydroxypiperidin-1-yl)-methanone hydrochloride]",23
8,"CCn1c(C)c(C)c2cc(C(=O)N3CCSCC3)nc(N3CCc4ccccc4C3)c21 [Example 808, [7-(3,4-dihydro-1H-isoquinolin-2-yl)-1-ethyl-2,3-dimethyl-1H-pyrrolo[2,3-c]pyridin-5-yl]-(thiomorpholin-4-yl)-methanone hydrochloride]",55
9,"CCn1c(C)c(C)c2cc(C(=O)N3CC=CCC3)nc(N3CCc4ccccc4C3)c21 [Example 809, [7-(3,4-dihydro-1H-isoquinolin-2-yl)-1-ethyl-2,3-dimethyl-1H-pyrrolo[2,3-c]pyridin-5-yl]-(3,6-dihydro-2H-pyridin-1-yl)-methanone hydrochloride]",59
10,"CCn1c(C)c(C)c2cc(C(=O)N3CCN(c4ccccc4)CC3)nc(N3CCc4ccccc4C3)c21 [Example 810, [7-(3,4-dihydro-1H-isoquinolin-2-yl)-1-ethyl-2,3-dimethyl-1H-pyrrolo[2,3-c]pyridin-5-yl]-(4-phenylpiperazin-1-yl)-methanone hydrochloride]",436
11,"C=CCn1c(C)c(C)c2cc(C(=O)N3CCNCC3)nc(N3CCc4ccccc4C3)c21 [Example 811, [1-allyl-7-(3,4-dihydro-1H-isoquinolin-2-yl)-2,3-dimethyl-1H-pyrrolo[2,3-c]pyridin-5-yl]-(piperazin-1-yl)-methanone hydrochloride]",3
12,"Cc1c(C)n(Cc2ccccc2)c2c(N3CCc4ccccc4C3)nc(C(=O)N3CCNCC3)cc12 [Example 812, [1-benzyl-7-(3,4-dihydro-1H-isoquinolin-2-yl)-2,3-dimethyl-1H-pyrrolo[2,3-c]pyridin-5-yl]-(piperazin-1-yl)-methanone hydrochloride]",21
13,"CCCn1c(C)c(C)c2cc(C(=O)N3CCNCC3)nc(N3CCc4ccccc4C3)c21 [Example 813, [7-(3,4-dihydro-1H-isoquinolin-2-yl)-2,3-dimethyl-1-propyl-1H-pyrrolo[2,3-c]pyridin-5-yl]-(piperazin-1-yl)-methanone hydrochloride]",11
14,"Cc1cccc(Cn2c(C)c(C)c3cc(C(=O)N4CCNCC4)nc(N4CCc5ccccc5C4)c32)c1 [Example 814, [7-(3,4-dihydro-1H-isoquinolin-2-yl)-2,3-dimethyl-1-(3-methylbenzyl)-1H-pyrrolo[2,3-c]pyridin-5-yl]-(piperazin-1-yl)-methanone hydrochloride]",31
15,"Cc1c(C)n(CC(C)C)c2c(N3CCc4ccccc4C3)nc(C(=O)N3CCNCC3)cc12 [Example 815, [7-(3,4-dihydro-1H-isoquinolin-2-yl)-1-isobutyl-2,3-dimethyl-1H-pyrrolo[2,3-c]pyridin-5-yl]-(piperazin-1-yl)-methanone hydrochloride]",29
16,"Cc1c(C)n(CC2CC2)c2c(N3CCc4ccccc4C3)nc(C(=O)N3CCNCC3)cc12 [Example 816, [1-cyclopropylmethyl-7-(3,4-dihydro-1H-isoquinolin-2-yl)-2,3-dimethyl-1H-pyrrolo[2,3-c]pyridin-5-yl]-(piperazin-1-yl)-methanone hydrochloride]",9
17,"Cc1c(C)n(CC2CC2)c2c(N3CCc4ccccc4C3)nc(C(=O)N3CCN(C)CC3)cc12 [Example 817, [1-cyclopropylmethyl-7-(3,4-dihydro-1H-isoquinolin-2-yl)-2,3-dimethyl-1H-pyrrolo[2,3-c]pyridin-5-yl]-(4-methylpiperazin-1-yl)-methanone hydrochloride]",24
18,"CCN1CCN(C(=O)c2cc3c(C)c(C)n(CC4CC4)c3c(N3CCc4ccccc4C3)n2)CC1 [Example 818, [1-cyclopropylmethyl-7-(3,4-dihydro-1H-isoquinolin-2-yl)-2,3-dimethyl-1H-pyrrolo[2,3-c]pyridin-5-yl]-(4-ethylpiperazin-1-yl)-methanone hydrochloride]",34
19,"Cc1c(C)n(Cc2ccccc2)c2c(N3CCc4ccccc4C3)nc(C(=O)N3CCN(C)CC3)cc12 [Example 819, [1-benzyl-7-(3,4-dihydro-1H-isoquinolin-2-yl)-2,3-dimethyl-1H-pyrrolo[2,3-c]pyridin-5-yl]-(4-methylpiperazin-1-yl)-methanone hydrochloride]",12
20,"Cc1cccc(Cn2c(C)c(C)c3cc(C(=O)N4CCN(C)CC4)nc(N4CCc5ccccc5C4)c32)c1 [Example 820, [7-(3,4-dihydro-1H-isoquinolin-2-yl)-2,3-dimethyl-1-(3-methylbenzyl)-1H-pyrrolo[2,3-c]pyridin-5-yl]-(4-methylpiperazin-1-yl)-methanone hydrochloride]",37
21,"COCCn1c(C)c(C)c2cc(C(=O)N3CCN(C)CC3)nc(N3CCc4ccccc4C3)c21 [Example 821, [7-(3,4-dihydro-1H-isoquinolin-2-yl)-1-(2-methoxyethyl)-2,3-dimethyl-1H-pyrrolo[2,3-c]pyridin-5-yl]-(4-methylpiperazin-1-yl)-methanone hydrochloride]",26
22,"COc1cccc(Cn2c(C)c(C)c3cc(C(=O)N4CCNCC4)nc(N4CCc5ccccc5C4)c32)c1 [Example 822, [7-(3,4-dihydro-1H-isoquinolin-2-yl)-1-(3-methoxybenzyl)-2,3-dimethyl-1H-pyrrolo[2,3-c]pyridin-5-yl]-(piperazin-1-yl)-methanone hydrochloride]",23
23,"COc1cccc(Cn2c(C)c(C)c3cc(C(=O)N4CCC(C)CC4)nc(N4CCc5ccccc5C4)c32)c1 [Example 823, [7-(3,4-dihydro-1H-isoquinolin-2-yl)-1-(3-methoxybenzyl)-2,3-dimethyl-1H-pyrrolo[2,3-c]pyridin-5-yl]-(4-methylpiperidin-1-yl)-methanone hydrochloride]",216
24,"CCN1CCN(C(=O)c2cc3c(C)c(C)n(Cc4cccc(OC)c4)c3c(N3CCc4ccccc4C3)n2)CC1 [Example 824, [7-(3,4-dihydro-1H-isoquinolin-2-yl)-1-(3-methoxybenzyl)-2,3-dimethyl-1H-pyrrolo[2,3-c]pyridin-5-yl]-(4-ethylpiperazin-1-yl)-methanone hydrochloride]",33
25,"CCCn1c(C)c(C)c2cc(C(=O)N3CCN(C)CC3)nc(N3CCc4ccccc4C3)c21 [Example 825, [7-(3,4-dihydro-1H-isoquinolin-2-yl)-2,3-dimethyl-1-propyl-1H-pyrrolo[2,3-c]pyridin-5-yl]-(4-methylpiperazin-1-yl)-methanone hydrochloride]",24
26,"CCN1CCN(C(=O)c2cc3c(C)c(C)n(CC)c3c(N3CCc4ccccc4C3)n2)CC1 [Example 826, [7-(3,4-dihydro-1H-isoquinolin-2-yl)-1-ethyl-2,3-dimethyl-1H-pyrrolo[2,3-c]pyridin-5-yl]-(4-ethylpiperazin-1-yl)-methanone hydrochloride]",16
27,"Cc1[nH]c2c(N3CCc4ccccc4C3)nc(C(=O)N3CCN(C)CC3)cc2c1C [Example 827, [7-(3,4-dihydro-1H-isoquinolin-2-yl)-2,3-dimethyl-1H-pyrrolo[2,3-c]pyridin-5-yl]-(4-methylpiperazin-1-yl)-methanone hydrochloride]",77
28,"Cc1ccc(Cn2c(C)c(C)c3cc(C(=O)N4CCN(C)CC4)nc(N4CCc5ccccc5C4)c32)cc1 [Example 828, [7-(3,4-dihydro-1H-isoquinolin-2-yl)-1-(4-methylbenzyl)-2,3-dimethyl-1H-pyrrolo[2,3-c]pyridin-5-yl]-(4-methylpiperazin-1-yl)-methanone hydrochloride]",94
29,"COc1ccc(Cn2c(C)c(C)c3cc(C(=O)N4CCN(C)CC4)nc(N4CCc5ccccc5C4)c32)cc1 [Example 829, [7-(3,4-dihydro-1H-isoquinolin-2-yl)-1-(4-methoxybenzyl)-2,3-dimethyl-1H-pyrrolo[2,3-c]pyridin-5-yl]-(4-methylpiperazin-1-yl)-methanone hydrochloride]",79
